The text below walks through data of patent US7022736B2, “Enzyme inhibitors” (Istituto Di Ricerche Di Biologia Molecolare P Angeletti SpA, priority 1998, dated 2006).

Experiment [1] addresses T1, HCV RdRp (NS5B RNA-dependent RNA polymerase) (Hepatitis C virus genotype 1b, UniProt P26663).
T1 construct: The HCV NS5B protein is the viral RdRp; made in house; host or cells: insect cells infected with recombinant baculovirus
Description: Inhibition of hepatitis C virus RdRp (poly(A)/oligo(U), [3H]UTP incorporation). Type of experiment: biochemical. Put shortly: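 Baculovirus-expressed recombinant NS5B (20 nM) polymerised on poly(A) template (10 μg/ml) with oligo(U)12 primer, 10 μM UTP plus [3H]UTP, pH 7.5 Tris buffer with 5 mM MgCl2, 1 h at 22 °C. Acid-insoluble radioactivity counted on filters; IC50 fitted from residual activity with slope term.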

For experiment [2], the target named is T2, reverse transcriptase of HIV (HIV-1 RT) (Human immunodeficiency virus type 1 group M subtype B, UniProt P03366).
T2 construct: the reverse transcriptase of HIV (HIV -1RT) from Boehringer Mannhium; purchased Boehringer Mannheim (printed 'Boehringer Mannhium')
Description: Inhibition of HIV-1 reverse transcriptase ([3H]dTTP incorporation). Type of experiment: biochemical, Human Immunodeficiency Virus-1. The conditions noted are these: Tables IXa-IXc; unit inferred; NA=not active as an inhibitor. The method, then: Test for Inhibition of Human Immunodeficiency Virus-1 Reverse Transcriptase
Analogous assays employed the reverse transcriptase of HIV (HIV -1RT) from Boehringer Mannhium.
Incorporation of radioactive dTTP was measured as follows. The standard reaction (100 μl) was carried out in a buffer containing 50 mM tris/HCl pH 8.2, 2.5 mM MgCl 2, 1 mM DTT, 80 mM KCl, 5 mM EGTA, 0.05% Triton X-100, 1 μCi[3H] dTTP (40 Ci/mmol, NEN), 10 μM […] and 10 μg/ml poly(A)/dT (from Pharmacia).

Experiment [3] has as its target T3, polymerase of hepatitis B virus (HBV pol) (Hepatitis B virus genotype D subtype ayw, UniProt P03156).
T3 construct: obtained in the form of viral particles from the sera of HBV positive patients; from tissue; host or cells: sera of HBV positive patients (viral particles)
Description: Inhibition of hepatitis B virus polymerase (32P-dNTP incorporation, viral particles from patient sera). Type of experiment: biochemical. The conditions noted are these: Tables IXa-IXc; unit inferred; NA=not active as an inhibitor. On the procedure:
Analogous assays employed the polymerase of hepatitis B virus (HBV pol), obtained in the form of viral particles from the sera of HBV positive patients. These particles contain a polymerase bound to an incomplete double stranded DNA template. In the assay the incorporation of ^32P-dNTP is measured as radioactivity incorporated in acid insoluble precipitate.
The standard reaction (100 μl) was carried out in a buffer containing 50 mM tris/HCl pH 7.5, 30 mM MgCl 2 , 1 mM DTT, 100 mM KCl, 0.02% Triton X-100, 1 μCi[^32P] dCTP (300 Ci/mmol, NEN), 1 μM dATP, dTTP, dGTP. After 1 hour incubation at 37° C. the reaction was stopped by adding 100 μl of 20% TCA and applying samples to DE81 filters. The filters were processed and IC50 values calculated as described above.

Where [4] appears, read: Tables I-VIII, 20 nM NS5B, 1 hour at 22° C., read-out: IC 50 (μM), HCV-polymerase.
The mark [5] stands for this setting: Tables IXa-IXc, unit inferred, read-out: HCV (IC50).

Like-named read-outs stand apart in the source and are kept apart here.

T1 sequence (P26663 2420-3010): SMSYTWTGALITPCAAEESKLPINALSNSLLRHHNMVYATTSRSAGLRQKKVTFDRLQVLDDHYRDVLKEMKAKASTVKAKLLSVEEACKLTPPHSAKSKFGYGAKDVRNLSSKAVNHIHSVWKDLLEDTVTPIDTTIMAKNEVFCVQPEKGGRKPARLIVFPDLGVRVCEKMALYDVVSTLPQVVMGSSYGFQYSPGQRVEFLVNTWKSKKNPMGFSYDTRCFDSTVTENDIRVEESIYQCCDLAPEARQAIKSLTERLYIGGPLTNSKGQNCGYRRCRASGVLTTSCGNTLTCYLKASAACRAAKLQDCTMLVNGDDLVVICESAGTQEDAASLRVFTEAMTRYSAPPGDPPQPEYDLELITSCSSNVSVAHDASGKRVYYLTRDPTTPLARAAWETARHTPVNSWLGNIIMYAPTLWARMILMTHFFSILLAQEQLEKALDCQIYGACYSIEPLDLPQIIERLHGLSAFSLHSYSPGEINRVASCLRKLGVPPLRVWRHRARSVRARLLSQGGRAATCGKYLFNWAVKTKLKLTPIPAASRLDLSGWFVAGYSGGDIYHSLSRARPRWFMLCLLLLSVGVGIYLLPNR
T3 sequence (P03156 whole entry): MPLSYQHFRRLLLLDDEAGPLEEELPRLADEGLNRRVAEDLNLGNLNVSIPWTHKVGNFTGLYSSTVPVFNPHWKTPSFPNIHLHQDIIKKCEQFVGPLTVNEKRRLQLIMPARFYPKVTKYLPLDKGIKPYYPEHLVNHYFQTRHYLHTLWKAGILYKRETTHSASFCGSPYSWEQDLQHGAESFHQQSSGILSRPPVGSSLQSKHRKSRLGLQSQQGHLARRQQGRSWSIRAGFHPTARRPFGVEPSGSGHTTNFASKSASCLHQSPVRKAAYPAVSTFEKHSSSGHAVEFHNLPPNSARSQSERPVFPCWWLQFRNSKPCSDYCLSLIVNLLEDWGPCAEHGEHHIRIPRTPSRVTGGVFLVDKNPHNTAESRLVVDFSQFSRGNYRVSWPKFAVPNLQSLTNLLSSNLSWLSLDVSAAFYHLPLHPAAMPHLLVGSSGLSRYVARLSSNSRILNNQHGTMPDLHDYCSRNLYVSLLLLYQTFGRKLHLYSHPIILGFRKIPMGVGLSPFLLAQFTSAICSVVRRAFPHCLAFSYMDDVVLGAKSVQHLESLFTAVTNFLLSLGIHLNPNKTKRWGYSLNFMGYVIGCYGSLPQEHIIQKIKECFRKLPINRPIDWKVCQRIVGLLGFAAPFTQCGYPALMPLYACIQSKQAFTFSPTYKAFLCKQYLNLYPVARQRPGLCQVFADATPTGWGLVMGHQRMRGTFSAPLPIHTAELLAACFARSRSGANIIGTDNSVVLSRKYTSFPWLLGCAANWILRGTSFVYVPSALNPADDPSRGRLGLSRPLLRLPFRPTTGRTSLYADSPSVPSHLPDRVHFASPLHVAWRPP

Regarding `O=C(O)C(O)=CC(=O)c1cccc(NS(=O)(=O)c2cccc3ccccc23)c1` [Example 78], the IC50 in experiment [1] (setting [4]) was 0.67 µM; in experiment [1] (setting [5]) it was 0.67 µM; in experiment [2], 35 µM.
Take `O=C(O)C(O)=CC(=O)c1ccc(-c2cc(Cl)cc(Cl)c2)o1` [Example 258]: the IC50 in experiment [1] (setting [5]) was over 100 µM; in experiment [2] it was 3.6 µM.
As to `O=C(O)C(O)=CC(=O)c1cccc(O)c1` [Example 23], the IC50 is 0.94 µM in experiment [1] (setting [4]), 1 µM in experiment [1] (setting [5]) and 59 µM in experiment [2].
On the same counts, the results for `O=C(O)C(O)=CC(=O)c1ccc(-c2ccc(F)c(Cl)c2)o1` [Example 218] are 41.2 µM, 41.2 µM and 11.8 µM.
Turning to `C=CCOc1ccccc1C(=O)C=C(O)C(=O)O` [Example 16], the results for the IC50 in experiment [1] (setting [4]), in experiment [1] (setting [5]) and in experiment [2] were 4.3 µM, 4.3 µM and over 100 µM, respectively.
For `O=C(O)C(O)=CC(=O)c1cc(O)cc(OCc2ccccc2)c1` [Example 155], the IC50 in experiment [1] (setting [4]) is 1.4 µM; in experiment [1] (setting [5]) it was 1.4 µM; in experiment [2], 130 µM.
In the case of `O=C(O)C(O)=CC(=O)c1ccc(-c2ccccc2)s1` [Example 196], the IC50 in experiment [3] was found to be 9 µM; in experiment [1] (setting [4]) it was 15 µM; in experiment [1] (setting [5]) it was 15 µM; in experiment [2], 50 µM.
With `N#Cc1ccc(Br)cc1COc1cccc(C(=O)C=C(O)C(=O)O)c1` [Example 113], the IC50 turned out to be 0.1 µM in experiment [1] (setting [4]), 0.1 µM in experiment [1] (setting [5]) and 90 µM in experiment [2].
On to `N#Cc1ccccc1OCc1cccc(C(=O)C=C(O)C(=O)O)c1` [Example 112], for which the figures for the IC50 in experiment [1] (setting [4]), in experiment [1] (setting [5]) and in experiment [2] were 1.33 µM, 1.33 µM and 90 µM, respectively.
Turning to `O=C(O)C(O)=CC(=O)c1ccccc1Cc1ccc(F)cc1` [Example 40], the results for the IC50 in experiment [1] (setting [4]), in experiment [1] (setting [5]) and in experiment [2] were 8.3 µM, 8.3 µM and 12 µM, respectively.
In the case of `O=C(O)C(O)=CC(=O)c1ccc(Cc2ccccc2)s1` [Example 202], the IC50 in experiment [3] is 9 µM; in experiment [1] (setting [4]), 68 µM; in experiment [1] (setting [5]), 70 µM; in experiment [2], over 100 µM.
In the case of `Cc1cccc(C(=O)C=C(O)C(=O)O)c1` [Example 19], the IC50 stood at 11.9 µM in experiment [1] (setting [4]), 12 µM in experiment [1] (setting [5]) and 77 µM in experiment [2].
The matching figures for `O=C(O)C(O)=CC(=O)c1cccc(NS(=O)(=O)c2c(Cl)cccc2Cl)c1` [Example 120]: 0.36 µM, 0.36 µM and 80 µM.
On the same counts, the results for `O=C(O)CCCOc1ccccc1C(=O)C=C(O)C(=O)O` [Example 27] are 2.84 µM, 3 µM and over 50 µM.
With `Cc1sc(-c2ccccc2)cc1C(=O)C=C(O)C(=O)O` [Example 225], the IC50 in experiment [3] turned out to be 4 µM; in experiment [1] (setting [4]), 167 µM; in experiment [1] (setting [5]) it was 167 µM; in experiment [2], 86 µM.
Take `O=C(O)C(O)=CC(=O)c1ccccc1` [Example 1]: the IC50 was 5.6 µM in experiment [1] (setting [4]), 5.6 µM in experiment [1] (setting [5]) and 90 µM in experiment [2].
Regarding `O=C(O)C(O)=CC(=O)c1ccc(Cc2cccc(F)c2)s1` [Example 205], the IC50 in experiment [3] was found to be 3.3 µM; in experiment [1] (setting [4]), 74 µM; in experiment [1] (setting [5]), 74 µM.
Regarding `O=C(O)C(=O)Nc1cccc(C(=O)C=C(O)C(=O)O)c1` [Example 24], the IC50 in experiment [1] (setting [4]) worked out at 19 µM; in experiment [1] (setting [5]) it was 19 µM; in experiment [2], 71 µM.
Turning to `N#CCCCOc1ccc(O)cc1C(=O)C=C(O)C(=O)O` [Example 53], the values for the IC50 in experiment [1] (setting [4]), in experiment [1] (setting [5]) and in experiment [2] were 0.115 µM, 0.115 µM and 37 µM, respectively.
As for `N#CCCCOc1ccc(Cl)cc1C(=O)C=C(O)C(=O)O` [Example 36], the IC50 in experiment [1] (setting [4]) was found to be 1.6 µM; in experiment [1] (setting [5]) it was 1.6 µM; in experiment [2], 24 µM.
In the case of `O=C(O)C(O)=CC(=O)c1cccc(OCc2ccccc2)c1` [Example 4], the IC50 was 8 µM in experiment [1] (setting [4]), 8 µM in experiment [1] (setting [5]) and over 100 µM in experiment [2].
Consider `O=C(O)C(O)=CC(=O)C12CC3CC(CC(C3)C1)C2` [Example 243], for which the figures for the IC50 in experiment [1] (setting [4]), in experiment [1] (setting [5]) and in experiment [2] were 6.7 µM, 6.7 µM and 26.8 µM, respectively.
For the molecule `Cc1ccc(OCCCC#N)c(C(=O)C=C(O)C(=O)O)c1` [Example 21], the IC50 in experiment [1] (setting [4]) is 0.955 µM; in experiment [1] (setting [5]), 1 µM; in experiment [2] it was over 50 µM.
The matching figures for `O=C(O)C(O)=CC(=O)c1cccc(NS(=O)(=O)c2cc(Cl)cc(Cl)c2)c1` [Example 117]: 0.14 µM, 0.14 µM and 100 µM.
On to `O=C(O)C(O)=CC(=O)c1cccc(OCc2c(F)cccc2F)c1` [Example 7], for which the IC50 came to 2.92 µM in experiment [1] (setting [4]), 3.3 µM in experiment [1] (setting [5]) and 61 µM in experiment [2].
Take `COc1cc(C)c(C#N)c(COc2cccc(C(=O)C=C(O)C(=O)O)c2)c1` [Example 111]: the IC50 in experiment [1] (setting [4]) was found to be 0.12 µM; in experiment [1] (setting [5]) it was 0.12 µM; in experiment [2], 80 µM.
For the molecule `O=C(O)C(O)=CC(=O)c1ccccc1OCc1ccccc1` [Example 8], the IC50 was 44 µM in experiment [1] (setting [4]), 44 µM in experiment [1] (setting [5]) and 19 µM in experiment [2].
Regarding `N#Cc1c(Cl)cc(Cl)cc1COc1cccc(C(=O)C=C(O)C(=O)O)c1` [Example 126], the figures for the IC50 in experiment [1] (setting [4]), in experiment [1] (setting [5]) and in experiment [2] were 0.056 µM, 0.056 µM and 100 µM, respectively.
On to `N#Cc1cccc(Cl)c1COc1cccc(C(=O)C=C(O)C(=O)O)c1` [Example 107], for which the figures for the IC50 in experiment [1] (setting [4]), in experiment [1] (setting [5]) and in experiment [2] were 0.14 µM, 0.14 µM and 58 µM, respectively.
On to `O=C(O)C(O)=CC(=O)c1cccc(OCCc2ccccc2)c1` [Example 18], for which the IC50 was found to be 2.2 µM in experiment [1] (setting [4]), 2.2 µM in experiment [1] (setting [5]) and 30 µM in experiment [2].
On to `Cc1ccc(C(=O)C=C(O)C(=O)O)cc1` [Example 161], for which the results for the IC50 in experiment [1] (setting [4]), in experiment [1] (setting [5]) and in experiment [2] were 2.8 µM, 2.8 µM and 320 µM, respectively.
On to `O=C(O)C(O)=CC(=O)c1ccc(Cc2ccc(F)cc2)s1` [Example 206], for which the IC50 in experiment [3] turned out to be 2 µM; in experiment [1] (setting [4]), 65 µM; in experiment [1] (setting [5]), 65 µM.
In the case of `N#CCCCOc1ccccc1C(=O)C=C(O)C(=O)O` [Example 20], the IC50 in experiment [1] (setting [4]) worked out at 0.38 µM; in experiment [1] (setting [5]), 0.38 µM; in experiment [2], 27 µM.
